According to the supplement of paper PMC11208160:

Experiment: recombinant barcode read abundance after kanamycin selection (control-corrected) (log10(CPM+1)); higher = more efficient recombination; sequences stand for … in AGTGCAGAGAAAATCGGCCAGTTTTCTCTGCCTGCAGTCCGCATGCCGT…ATTTATGCAGCGGACTGCCTTTCTCCCAAAGTGATAAACCGGACAGTATCATGGACCGGTTTTCCCGGTAATCCGTATTTGCAAGGTTGGTTTCACT; site = the 11-nt target
Protocol: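 Same pooled E. coli target screen (IS621 bridge recombinase, kanamycin selection, control-corrected CPM, mean of 2 biological replicates). Here the two core-binding nucleotides of the LTG and RTG of the bridge RNA target-binding loop are mutated. Target and donor CT cores are held constant, and the other 9 guide positions match the target. The target is read from the library oligo sequence. Molecule = full bridge RNA written as DNA: nt 1-80 from the library oligo, rest WT scaffold.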

Sequence | recombinant barcode read abundance (log10)
AAACAGTCTTGGGTTCTAACCTGTTGCCTCC [AAACAGTCTAG_LTGcore_CT_RTGcore_GG] (site AAACAGTCTAG) (LTG core: CT, RTG core: GG) | 1.4
AAACAGTGATGGGTTCTAACCTGTTGCCTAG [AAACAGTCTAG_LTGcore_GA_RTGcore_CT] (site AAACAGTCTAG) (LTG core: GA, RTG core: CT) | 0.192
AAACAGTGATGGGTTCTAACCTGTTGCCTTC [AAACAGTCTAG_LTGcore_GA_RTGcore_GA] (site AAACAGTCTAG) (LTG core: GA, RTG core: GA) | 0.0385
AAACAGTGGTGGGTTCTAACCTGTTGCCTAG [AAACAGTCTAG_LTGcore_GG_RTGcore_CT] (site AAACAGTCTAG) (LTG core: GG, RTG core: CT) | 0.0371
AAACAGTTGTGGGTTCTAACCTGTTGCCTCA [AAACAGTCTAG_LTGcore_TG_RTGcore_TG] (site AAACAGTCTAG) (LTG core: TG, RTG core: TG) | 0.0424
AAACAGTTTTGGGTTCTAACCTGTTGCCTAG [AAACAGTCTAG_LTGcore_TT_RTGcore_CT] (site AAACAGTCTAG) (LTG core: TT, RTG core: CT) | 0.109
AAACATGAATGGGTTCTAACCTGTTGCCTAG [AAACATGCTAG_LTGcore_AA_RTGcore_CT] (site AAACATGCTAG) (LTG core: AA, RTG core: CT) | 0
AAACATGACTGGGTTCTAACCTGTTGCCTGT [AAACATGCTAG_LTGcore_AC_RTGcore_AC] (site AAACATGCTAG) (LTG core: AC, RTG core: AC) | 0.123
AAACATGCTTGGGTTCTAACCTGTTGCCTAC [AAACATGCTAG_LTGcore_CT_RTGcore_GT] (site AAACATGCTAG) (LTG core: CT, RTG core: GT) | 1.05
AAACATGCTTGGGTTCTAACCTGTTGCCTGC [AAACATGCTAG_LTGcore_CT_RTGcore_GC] (site AAACATGCTAG) (LTG core: CT, RTG core: GC) | 0.756
AAACATGCTTGGGTTCTAACCTGTTGCCTTA [AAACATGCTAG_LTGcore_CT_RTGcore_TA] (site AAACATGCTAG) (LTG core: CT, RTG core: TA) | 0.485
AAACATGCTTGGGTTCTAACCTGTTGCCTTT [AAACATGCTAG_LTGcore_CT_RTGcore_AA] (site AAACATGCTAG) (LTG core: CT, RTG core: AA) | 0.865
AAACATGGGTGGGTTCTAACCTGTTGCCTCC [AAACATGCTAG_LTGcore_GG_RTGcore_GG] (site AAACATGCTAG) (LTG core: GG, RTG core: GG) | 0.137
AAACATGTGTGGGTTCTAACCTGTTGCCTCA [AAACATGCTAG_LTGcore_TG_RTGcore_TG] (site AAACATGCTAG) (LTG core: TG, RTG core: TG) | 0.015
ACGGGACATTGGGTTCTAACCTGTTGCAGAG [ACGGGACCTCT_LTGcore_AT_RTGcore_CT] (site ACGGGACCTCT) (LTG core: AT, RTG core: CT) | 0.0817
ACGGGACCGTGGGTTCTAACCTGTTGCAGAG [ACGGGACCTCT_LTGcore_CG_RTGcore_CT] (site ACGGGACCTCT) (LTG core: CG, RTG core: CT) | 1.86
ACGGGACCTTGGGTTCTAACCTGTTGCAGCA [ACGGGACCTCT_LTGcore_CT_RTGcore_TG] (site ACGGGACCTCT) (LTG core: CT, RTG core: TG) | 0.0129
ACGGGACCTTGGGTTCTAACCTGTTGCAGGT [ACGGGACCTCT_LTGcore_CT_RTGcore_AC] (site ACGGGACCTCT) (LTG core: CT, RTG core: AC) | 0.534
ACGGGACCTTGGGTTCTAACCTGTTGCAGTC [ACGGGACCTCT_LTGcore_CT_RTGcore_GA] (site ACGGGACCTCT) (LTG core: CT, RTG core: GA) | 0.425
ACGGGACGTTGGGTTCTAACCTGTTGCAGAG [ACGGGACCTCT_LTGcore_GT_RTGcore_CT] (site ACGGGACCTCT) (LTG core: GT, RTG core: CT) | 0.463
ACGGGACTATGGGTTCTAACCTGTTGCAGAG [ACGGGACCTCT_LTGcore_TA_RTGcore_CT] (site ACGGGACCTCT) (LTG core: TA, RTG core: CT) | 0.0145

Sequence | recombinant barcode read abundance (log10)
ACGGGACTCTGGGTTCTAACCTGTTGCAGGA [ACGGGACCTCT_LTGcore_TC_RTGcore_TC] (site ACGGGACCTCT) (LTG core: TC, RTG core: TC) | 0
AGGAGGTACTGGGTTCTAACCTGTTGCCTGT [AGGAGGTCTAG_LTGcore_AC_RTGcore_AC] (site AGGAGGTCTAG) (LTG core: AC, RTG core: AC) | 0.183
AGGAGGTATTGGGTTCTAACCTGTTGCCTAT [AGGAGGTCTAG_LTGcore_AT_RTGcore_AT] (site AGGAGGTCTAG) (LTG core: AT, RTG core: AT) | 0.643
AGGAGGTCATGGGTTCTAACCTGTTGCCTAG [AGGAGGTCTAG_LTGcore_CA_RTGcore_CT] (site AGGAGGTCTAG) (LTG core: CA, RTG core: CT) | 0.207
AGGAGGTCATGGGTTCTAACCTGTTGCCTTG [AGGAGGTCTAG_LTGcore_CA_RTGcore_CA] (site AGGAGGTCTAG) (LTG core: CA, RTG core: CA) | 0
AGGAGGTCCTGGGTTCTAACCTGTTGCCTGG [AGGAGGTCTAG_LTGcore_CC_RTGcore_CC] (site AGGAGGTCTAG) (LTG core: CC, RTG core: CC) | 0.227
AGGAGGTCGTGGGTTCTAACCTGTTGCCTCG [AGGAGGTCTAG_LTGcore_CG_RTGcore_CG] (site AGGAGGTCTAG) (LTG core: CG, RTG core: CG) | 0.384
AGGAGGTCTTGGGTTCTAACCTGTTGCCTAC [AGGAGGTCTAG_LTGcore_CT_RTGcore_GT] (site AGGAGGTCTAG) (LTG core: CT, RTG core: GT) | 0.332
AGGAGGTCTTGGGTTCTAACCTGTTGCCTTA [AGGAGGTCTAG_LTGcore_CT_RTGcore_TA] (site AGGAGGTCTAG) (LTG core: CT, RTG core: TA) | 0.446
AGGAGGTCTTGGGTTCTAACCTGTTGCCTTG [AGGAGGTCTAG_LTGcore_CT_RTGcore_CA] (site AGGAGGTCTAG) (LTG core: CT, RTG core: CA) | 0.336
AGGAGGTGATGGGTTCTAACCTGTTGCCTTC [AGGAGGTCTAG_LTGcore_GA_RTGcore_GA] (site AGGAGGTCTAG) (LTG core: GA, RTG core: GA) | 0.218
AGGAGGTGGTGGGTTCTAACCTGTTGCCTCC [AGGAGGTCTAG_LTGcore_GG_RTGcore_GG] (site AGGAGGTCTAG) (LTG core: GG, RTG core: GG) | 0.0671
AGGAGGTGTTGGGTTCTAACCTGTTGCCTAC [AGGAGGTCTAG_LTGcore_GT_RTGcore_GT] (site AGGAGGTCTAG) (LTG core: GT, RTG core: GT) | 0.0506
AGGAGGTTGTGGGTTCTAACCTGTTGCCTAG [AGGAGGTCTAG_LTGcore_TG_RTGcore_CT] (site AGGAGGTCTAG) (LTG core: TG, RTG core: CT) | 0.42
AGGAGGTTGTGGGTTCTAACCTGTTGCCTCA [AGGAGGTCTAG_LTGcore_TG_RTGcore_TG] (site AGGAGGTCTAG) (LTG core: TG, RTG core: TG) | 0.0756
AGGCCTCACTGGGTTCTAACCTGTTGCCTGT [AGGCCTCCTAG_LTGcore_AC_RTGcore_AC] (site AGGCCTCCTAG) (LTG core: AC, RTG core: AC) | 0.113
AGGCCTCAGTGGGTTCTAACCTGTTGCCTAG [AGGCCTCCTAG_LTGcore_AG_RTGcore_CT] (site AGGCCTCCTAG) (LTG core: AG, RTG core: CT) | 0.0227
AGGCCTCATTGGGTTCTAACCTGTTGCCTAG [AGGCCTCCTAG_LTGcore_AT_RTGcore_CT] (site AGGCCTCCTAG) (LTG core: AT, RTG core: CT) | 0.254
AGGCCTCCCTGGGTTCTAACCTGTTGCCTGG [AGGCCTCCTAG_LTGcore_CC_RTGcore_CC] (site AGGCCTCCTAG) (LTG core: CC, RTG core: CC) | 0.146
AGGCCTCCTTGGGTTCTAACCTGTTGCCTAA [AGGCCTCCTAG_LTGcore_CT_RTGcore_TT] (site AGGCCTCCTAG) (LTG core: CT, RTG core: TT) | 0.109
